These results are taken from US20090179638A1, “ASSAY FOR IDENTIFYING INHIBITORS OF NEURONAL APOPTOTIC PATHWAYS” (AEGERA THERAPEUTICS INC., priority 2006, published 2009).

The test system of one assay is JNK. Briefly: NRAGE- and p75NTR-induced JNK activation in PC12rtTA cells (c-Jun phosphorylation, caspase-3 cleavage, immunoblot). The conditions noted are these: for c-Jun phosphorylation: AdNRG infected, 30 hours (FIG. 6C). Type of assay: cell-based. The method, then: FIGS. 2C and 2D are photographs of Western blots which illustrate that compound 1 inhibits NRAGE- and p75NTR-induced JNK activation. C, D: Compound 1 inhibits NRAGE- and p75NTR-induced JNK activation. PC12^rtTA cells were infected with AdNRG at 5 MOI (C), with Adp75 at 50 MOI (D), or with AdLacZ at an equivalent MOI for each experiment, as indicated. At time of infection, the cells were treated with increasing concentrations of compound 1, or with vehicle alone, as indicated. […] Experiments in Panel A-D were performed three times with essentially identical results.
Activation of JNK activity is necessary for the induction of p75NTR- or NRAGE-initiated caspase cleavage and cell death (Bhakar et al., 2003; Salehi et al., 2002). Therefore, the effect of compound 1 on the activity of JNK was assessed by analyzing alterations in the phosphorylation level of the JNK target, c-Jun, and the cleavage status of caspase-3. […] Thus, the suppression of JNK signaling and caspase-3 cleavage mediated by compound 1 occurred with a dose-dependency similar to the anti-apoptotic activity of compound 1.
Cell culture, infection, transfection and immunoblotting. Sympathetic neurons were maintained and deprived of NGF as previously described (Bamji et al., 1998; Ma et al., 1992). PC12^rtTA cells were maintained and infected as previously described (Majdan et al., 1997; Salehi et al., 2002); for NRAGE, […] doxycycline was added to all plates at time of infection. Wildtype and HSF1 nullizygous immortalized mouse embryonic fibroblasts (MEFs) were maintained in DMEM containing 10% fetal calf serum, 1 μM β-mercaptoethanol, 1% non-essential amino acids, 1% L-glutamine, 1% antimycotic solution and 1% sodium pyruvate (all from GibcoBRL). Sympathetic neuron survival was assessed using the MTS assay according to the manufacturer's instructions (Promega). Analysis of PC12 cell death was determined using a lactate dehydrogenase (LDH) assay (Roche) as per the manufacturer's instructions. Transfections using plasmids or RNAi were performed using Lipofectamine 2000. Immunoblotting was performed as previously described (Majdan et al., 1997; Salehi et al., 2002).
On the technique in general: In western blotting, separated proteins are transferred to a membrane and probed.

The next assay has as its system HSP70. Briefly: HSP protein expression in PC12 / PC12rtTA cells (immunoblot). The assay is classed as cell-based. To be noted: for HSP70 production: PC12rtTA cells infected with AdNRG, Adp75 or AdLacZ, 30 hours (FIG. 6A). The method, then: FIGS. 4A-4C are photographs of Western blots which illustrate that compound 1 treatment of PC12 cells induces expression of HSP70. A: PC12 cells were infected with 5 MOI of AdNRG (NRG) or AdLacZ (LacZ) as indicated. Cells were left untreated (0) or treated with 40 μM compound 1 at time of infection (30), one hour before lysis (1), or at both times (30+1). Cells were lysed thirty hours after infection, normalized for protein content, and analyzed for levels of phospho-Ser^63 c-Jun and total c-Jun, total JNK, IkBα, and NRAGE by immunoblotting. Lysates from untreated cells are indicated by ‘−’. B: PC12 cells were treated with the indicated concentrations of compound 1 for 18 hours and then lysed, normalized for protein content, and analyzed for levels of HSP70 by immunoblotting. Lysates from untreated cells are indicated by ‘−’. C: RNA isolated from PC12^rtTA cells treated with increasing concentrations of compound 1 for 18 hours was analyzed by rtPCR using primers specific to HSP70, HSP25, HSP90 or actin, as indicated. Experiments in Panel A and B were performed three times and that in Panel C was performed twice, with essentially identical results. D: PC12^rtTA cells were infected with AdNRG at 5 MOI, Adp75 at 50 MOI, or the control virus AdLacZ at 50 MOI. At time of infection, the cells were treated with increasing concentrations of compound 1, or with vehicle alone, as indicated. Thirty hours after infection, cells were lysed, normalized for protein content, and analyzed for levels of c-Jun phosphorylation, HSP70, HSP25, HSP40, NRAGE, p75NTR, JNK-1 and IkBα, as indicated.
FIGS. 6A, 6B and 6C are graphs and photographs of Western blots which illustrate that compound 1 analogues inhibit JNK activation and induce expression of HSP70. A: PC12^rtTA cells were infected with 5 MOI of AdNRG, 50 MOI of Adp75 or 50 MOI of the control virus AdLacZ. At time of infection, the cells were treated with an increasing concentrations of compound 1, or its analogues, compound 2, compound 3, compound 4, or with vehicle alone, as indicated. Thirty hours after infection, cells were lysed, normalized for protein levels, and analyzed for levels of HSP70, HSP25 and JNK-1, as indicated. B: PC12^rtTA cells were treated as above and after 40 hours infection were assayed for death using the lactate dehydrogenase (LDH) assay. Results are normalized relative to those obtained with 1% Triton, and represent the mean±standard deviation of a representative experiment performed in triplicate (*=P<0.025 relative to ‘0’ for each compound concentration). C: PC12^rtTA cells were infected with 50 MOI of LacZ or 5 MOI of AdNRG50 and at the time of infection, were treated with 40 μM compound 1, or its analogues, compound 2, compound 3, compound 4, or with vehicle alone, as indicated. Thirty hours after infection, cells were lysed, normalized for protein levels, and were analyzed for phosphorylated c-Jun, total c-Jun, NRAGE and JNK-1, as indicated. Experiments in Panel A and C were performed twice and that in B were performed twice, with essentially identical results.
To address this, SCG neurons were treated with compound 1 for 18 hours then lysed and assessed for HSP70 levels by immunoblot. Uninfected PC12rtTA cells were treated in a similar manner. […] To test if the accumulation of HSP70 induced by compound 1 reflected increased steady state levels of its mRNA, RNA was isolated from PC12 cells treated with increasing concentrations of compound 1 for 18 hours and the cell lysates subjected to semi-quantitative rtPCR. […] HSP protein levels were also assessed in PC12rtTA cells infected with AdLacZ, Adp75, or AdNRG, and at the same time, exposed to compound 1.

Setting [1] is: cells infected with LacZ or Adp75, increasing concentrations.

Consider `NS(=O)(=O)c1nn2cc(-c3ccccc3)nc2s1` [Compound 1], for which the “c-Jun phosphorylation and caspase-3 cleavage” value in the assay on JNK (10 μM, AdNRG infected cells) is recorded as “significant decrease”. Moreover, the “decrease in c-Jun phosphorylation and caspase-3 cleavage” value with JNK (40 μM, AdNRG infected cells) is reported as “virtually complete”. Also, in the assay with JNK (40 μM), the c-Jun phosphorylation entry is listed as “reducing”. The “ability to block c-jun phosphorylation in cells transfected with HSP70 RNAi” value in the assay with JNK (HSP70 siRNA transfected PC12rtTA cells) was “small but consistent attenuation”. For the same compound, the JNK inhibitory effects entry with JNK (extended (24 hour) incubation, 40 μM) is “occurred”. The JNK inhibitory effects result in the assay on JNK (short term (1 hr) incubation, 40 μM) was “not short term”. In addition, the HSP70 production result in the assay with HSP70 is “induced HSP70 production”. Moreover, in the assay with HSP70 (cells infected with AdNRG), the “HSP70 levels versus AdNRG alone” value is “substantially higher”. In the assay with HSP70 (setting [1]), the HSP40 protein level entry is reported as “not HSP40”; the “HSP70 and HSP25 protein levels” value was “robust increase”. Besides, in the assay with HSP70 (uninfected PC12rtTA cells, 18 hours), the “cellular HSP70 levels” value is on record as “large increase”.
As to `NS(=O)(=O)c1nn2cc(-c3ccc(N4CCOCC4)cc3)nc2s1` [Compound 2], in the assay on JNK (40 μM), the c-Jun phosphorylation result is reported as “reducing”. The HSP70 production result with HSP70 is listed as “robustly induced HSP70 production”.
